Test results as given in patent US20030073618A1, “Compounds comprising disulfide-containing peptides and nitrogenous bases, and medical uses thereof” (priority 2001, published 2003).
Like-named read-outs stand apart in the source and are kept apart here.

Tested on: mycobacterium tuberculosis
Conditions: Ex. 16

N[C@@H](CCC(=O)N[C@@H](CSSC[C@H](NC(=O)CC[C@H](NP(=O)(O)OC[C@H]1O[C@@H](n2cnc3c(=O)[nH]cnc32)[C@H](O)[C@@H]1O)C(=O)O)C(=O)NCC(=O)[O-])C(=O)NCC(=O)[O-])C(=O)O.[Li+].[Li+] [Li2-GSSG-IMP]
Karnovsky score (in 2 months): 75 | Temperature (in 2 months, on admission 37.5): 36.7 °C | Weight gained (in a month): 4 kg | Karnovsky score (in a month, on admission 50, with antibacterial therapy): 70 | Bacterial discharge, in the vision field by microscopy (in a month, on admission up to 100): 2-4 | Karnovsky score (on treatment completion): 90 | Temperature (on treatment completion): 36.6 °C | X-ray, destruction cavity (on treatment completion, on admission 4×3 cm): destruction cavity in the left lung upper lobe healed
